Laboratory results from publication PMC10088252.

In the case of `O=C(Nc1ccc(Oc2ccnc3c2CCN3)c(F)c1)c1c[nH]cc(-c2ccc(F)cc2)c1=O`, the “TRAE Insomnia, any grade” value (300 mg QD (n=12)) is reported as 1 (8.3) n (%), the “TRAE Insomnia, grade 3-4” value (300 mg QD (n=12)) is reported as 0 n (%) and the “TRAE Leukopenia, any grade” value (300 mg QD (n=12)) is reported as 0 n (%). The “TRAE Leukopenia, grade 3-4” value (300 mg QD (n=12)) was 0 n (%), the “TRAE Nausea, any grade” value (300 mg QD (n=12)) was 3 (25.0) n (%) and the “TRAE Nausea, grade 3-4” value (300 mg QD (n=12)) was 0 n (%). For the same molecule, the “TRAE Neuritis, any grade” value (300 mg QD (n=12)) was 0 n (%), the “TRAE Neuritis, grade 3-4” value (300 mg QD (n=12)) was 0 n (%) and the “TRAE Occult blood, any grade” value (300 mg QD (n=12)) was 0 n (%). The “TRAE Occult blood, grade 3-4” value (300 mg QD (n=12)) was 0 n (%), the “TRAE Oedema peripheral, any grade” value (300 mg QD (n=12)) was 0 n (%) and the “TRAE Oedema peripheral, grade 3-4” value (300 mg QD (n=12)) was 0 n (%). For the same molecule, the “TRAE Onycholysis, any grade” value (300 mg QD (n=12)) was 0 n (%), the “TRAE Onycholysis, grade 3-4” value (300 mg QD (n=12)) was 0 n (%) and the “TRAE Oropharyngeal pain, any grade” value (300 mg QD (n=12)) was 0 n (%). For the same molecule, the “TRAE Oropharyngeal pain, grade 3-4” value (300 mg QD (n=12)) was 0 n (%), the “TRAE PPE, any grade” value (300 mg QD (n=12)) was 1 (8.3) n (%) and the “TRAE PPE, grade 3-4” value (300 mg QD (n=12)) was 0 n (%). The “TRAE Paraesthesia, any grade” value (300 mg QD (n=12)) was 0 n (%), the “TRAE Paraesthesia, grade 3-4” value (300 mg QD (n=12)) was 0 n (%) and the “TRAE Proteinuria, any grade” value (300 mg QD (n=12)) was 0 n (%). The “TRAE Proteinuria, grade 3-4” value (300 mg QD (n=12)) was 0 n (%), the “TRAE Pruritus, any grade” value (300 mg QD (n=12)) was 0 n (%) and the “TRAE Pruritus, grade 3-4” value (300 mg QD (n=12)) was 0 n (%). The “TRAE Rash maculo-papular, any grade” value (300 mg QD (n=12)) was 1 (8.3) n (%), the “TRAE Rash maculo-papular, grade 3-4” value (300 mg QD (n=12)) was 0 n (%) and the “TRAE Sinus tachycardia, any grade” value (300 mg QD (n=12)) was 0 n (%). For the same molecule, the “TRAE Sinus tachycardia, grade 3-4” value (300 mg QD (n=12)) was 0 n (%), the “TRAE Skin fissures, any grade” value (300 mg QD (n=12)) was 0 n (%) and the “TRAE Skin fissures, grade 3-4” value (300 mg QD (n=12)) was 0 n (%). For the same molecule, the “TRAE Supraventricular extrasystoles, any grade” value (300 mg QD (n=12)) was 0 n (%), the “TRAE Supraventricular extrasystoles, grade 3-4” value (300 mg QD (n=12)) was 0 n (%) and the “TRAE Thrombocytopenia, any grade” value (300 mg QD (n=12)) was 0 n (%). The “TRAE Thrombocytopenia, grade 3-4” value (300 mg QD (n=12)) was 0 n (%), the “TRAE Upper respiratory tract infection, any grade” value (300 mg QD (n=12)) was 1 (8.3) n (%) and the “TRAE Upper respiratory tract infection, grade 3-4” value (300 mg QD (n=12)) was 0 n (%). For the same molecule, the “TRAE Urinary retention, any grade” value (300 mg QD (n=12)) was 0 n (%), the “TRAE Urinary retention, grade 3-4” value (300 mg QD (n=12)) was 0 n (%) and the “TRAE Urinary tract infection, any grade” value (300 mg QD (n=12)) was 0 n (%). The “TRAE Urinary tract infection, grade 3-4” value (300 mg QD (n=12)) was 0 n (%), the “TRAE Ventricular arrhythmia, any grade” value (300 mg QD (n=12)) was 1 (8.3) n (%) and the “TRAE Ventricular arrhythmia, grade 3-4” value (300 mg QD (n=12)) was 0 n (%). The “TRAE Ventricular extrasystoles, any grade” value (300 mg QD (n=12)) was 1 (8.3) n (%), the “TRAE Ventricular extrasystoles, grade 3-4” value (300 mg QD (n=12)) was 0 n (%) and the “TRAE Vomiting, any grade” value (300 mg QD (n=12)) was 0 n (%). The “TRAE Vomiting, grade 3-4” value (300 mg QD (n=12)) was 0 n (%), the “TRAE Weight loss, any grade” value (300 mg QD (n=12)) was 0 n (%) and the “TRAE Weight loss, grade 3-4” value (300 mg QD (n=12)) was 0 n (%). The “TRAE Accessory nerve disorder, any grade” value (400 mg BID (n=4)) was 0 n (%), the “TRAE Accessory nerve disorder, grade 3-4” value (400 mg BID (n=4)) was 0 n (%) and the “TRAE Activated partial thromboplastin time prolonged, any grade” value (400 mg BID (n=4)) was 0 n (%). The “TRAE Activated partial thromboplastin time prolonged, grade 3-4” value (400 mg BID (n=4)) was 0 n (%), the “TRAE Anaemia, any grade” value (400 mg BID (n=4)) was 0 n (%) and the “TRAE Anaemia, grade 3-4” value (400 mg BID (n=4)) was 0 n (%). For the same molecule, the “TRAE Anaesthesia oral, any grade” value (400 mg BID (n=4)) was 0 n (%), the “TRAE Anaesthesia oral, grade 3-4” value (400 mg BID (n=4)) was 0 n (%) and the “TRAE Arrhythmia, any grade” value (400 mg BID (n=4)) was 0 n (%). The “TRAE Arrhythmia, grade 3-4” value (400 mg BID (n=4)) was 0 n (%), the “TRAE Arthralgia, any grade” value (400 mg BID (n=4)) was 0 n (%) and the “TRAE Arthralgia, grade 3-4” value (400 mg BID (n=4)) was 0 n (%). The “TRAE Asthenia, any grade” value (400 mg BID (n=4)) was 0 n (%), the “TRAE Asthenia, grade 3-4” value (400 mg BID (n=4)) was 0 n (%) and the “TRAE Blister, any grade” value (400 mg BID (n=4)) was 0 n (%). The “TRAE Blister, grade 3-4” value (400 mg BID (n=4)) was 0 n (%), the “TRAE Chest discomfort, any grade” value (400 mg BID (n=4)) was 0 n (%) and the “TRAE Chest discomfort, grade 3-4” value (400 mg BID (n=4)) was 0 n (%). The “TRAE Chronic kidney disease, any grade” value (400 mg BID (n=4)) was 0 n (%), the “TRAE Chronic kidney disease, grade 3-4” value (400 mg BID (n=4)) was 0 n (%) and the “TRAE Constipation, any grade” value (400 mg BID (n=4)) was 0 n (%). The “TRAE Constipation, grade 3-4” value (400 mg BID (n=4)) was 0 n (%), the “TRAE Cough, any grade” value (400 mg BID (n=4)) was 0 n (%) and the “TRAE Cough, grade 3-4” value (400 mg BID (n=4)) was 0 n (%). The “TRAE Decreased Ccr, any grade” value (400 mg BID (n=4)) was 0 n (%), the “TRAE Decreased Ccr, grade 3-4” value (400 mg BID (n=4)) was 0 n (%) and the “TRAE Decreased appetite, any grade” value (400 mg BID (n=4)) was 0 n (%). For the same molecule, the “TRAE Decreased appetite, grade 3-4” value (400 mg BID (n=4)) was 0 n (%), the “TRAE Diarrhoea, any grade” value (400 mg BID (n=4)) was 0 n (%) and the “TRAE Diarrhoea, grade 3-4” value (400 mg BID (n=4)) was 0 n (%). The “TRAE Dizziness, any grade” value (400 mg BID (n=4)) was 0 n (%), the “TRAE Dizziness, grade 3-4” value (400 mg BID (n=4)) was 0 n (%) and the “TRAE Dry mouth, any grade” value (400 mg BID (n=4)) was 0 n (%). The “TRAE Dry mouth, grade 3-4” value (400 mg BID (n=4)) was 0 n (%), the “TRAE Dysgeusia, any grade” value (400 mg BID (n=4)) was 0 n (%) and the “TRAE Dysgeusia, grade 3-4” value (400 mg BID (n=4)) was 0 n (%).
